Test results taken from patent US7122360B1, “Polypeptides, polynucleotides and uses thereof” (University of Dundee, priority 1998, dated 2006).
“Also recorded” adds a separate entry of the source.

What was measured:
MSK1 [1] = assay: LPS-induced activation of MSK1 in RAW 264 macrophages; format: cell-based, mouse; conditions: for LPS-stimulated phosphorylation of MSK1: 50 μM PD 98059 or 10 (M SB203580), FIG. 15; for LPS-induced activation of MSK1: LPS 100 ng/ml 1 h, 10 μM UO 126, 10 μM SB 203580, 5 TM Ro 318220
Experimental: (§1) FIG. 15. […] After cell lysis aliquots were assayed for either MSK1 (A), MAPKAP-K1 (B), MAPKAP-K2 (C) after their immunoprecipitation from the lysates or immunoblotted for phosphorylation of CREB and ATF1 (D).
FIG. 18. Effect of inhibitors on the LPS-induced activation of protein kinases in RAW 264 macrophages. Macrophages were incubated for 1 h in the presence or absence 10 μM UO 126 (U) and/or 10 μM SB 203580 (SB), or 5 TM Ro 318220 (Ro), then stimulated for 1 h with or without 100 ng/ml LPS in the continued presence or absence of the inhibitors. MSK1(A), MSK2 (B), MAPKAP-KI (C) and MAPKAP-K2 (D) were then assayed after immunoprecipitation from the lysates.
(§2) Cell culture and stimulation. RAW 264 macrophages were maintained in a 95% air/5% CO2 atmosphere in Dulbecco's modified Eagle's medium (DMEM) plus 10% (v/v) heat-inactivated foetal calf serum, 100 U/ml penicillin, […] streptomycin. The day before stimulation, the macrophages were plated at a density of 2×10^6 cells per 6 cm plate and 2 h before stimulation, the medium removed and replaced with 2 ml of DMEM. Where indicated, […] (10 TM) and/or PD 98059 (50 Tm), or U0126 (10 TM) or Ro 318220 (5 TM), were added 1 h before stimulation.
Cell lysis. After stimulation, the medium was aspirated and the cells were solubilized in 0.2 ml of ice cold lysis buffer (50 mM Tris-acetate pH 7.0, 1 mM EDTA, 1 mM EGTA, 1% (w/v) Triton X-100, 1 mM sodium orthovanadate, 10 mM sodium glycerophosphate, 50 mM NaF, 5 mM sodium pyrophosphate, 0.27 M sucrose, 2 TM microcystin-LR, 1 mM benzamidine, 0.1% (v/v) 2-mercaptoethanol and “complete” proteinase inhibitor cocktail—one tablet per 50 ml). The samples were then snap frozen in liquid nitrogen and stored in aliquots at −80° C. until analysis. Protein concentrations were determined according to [7].

IL-1 mRNA = assay: IL-1 gene transcription in RAW 264 macrophages, RT-PCR; format: cell-based, mouse; conditions: LPS 3 h, PD 98059 (50 TM), SB 203580 (10 TM), Ro 318220 (5 TM)
Experimental: (§3) FIG. 21. Effect of PD 98059 and SB 203580 on gene transcription in RAW 264 macrophages. (A) Cells were stimulated for the times indicated with LPS (100 ng/ml). Total RNA was extracted at each time point and mRNA encoding IL-1, COX-2 and HRPT was determined using the reverse transcriptase polymerase chain reaction (Section 2.6). (B) As in A, except that the macrophages were incubated for 1 h in the presence or absence of PD 98059 (50 TM) and/or SB 203580 (10 TM), or Ro 318220 (5 TM), then stimulated for 3 h in the absence or presence of LPS, and in the continued presence or absence of the inhibitors. RTPCR was performed using oligonucleotides encoding fragments of IL-1, COX-2 and HPRT.
as §2
(§4) Reverse transcripts polymerase chain reactions. Total RNA was prepared from LPS-stimulated or control RAW 264 cells using the Rneasy Mini Kit according to the manufacturer's protocol. Total RNA was measured and 100 ng was reverse transcribed using Promega AMV reverse transcriptase (5 U/ml) with the oligonucleotides […] and […] TGA (coding for the IL-1 gene) and […] and […] (coding for the COX-2 gene). Conditions for PCR amplification of the resulting first-stand DNA template were 94° C. denaturing for 30 sec, 60° C. annealing for 1 min, 68° C. extension for 1 min, 30 cycles using thermostable Tf1 DNA polymerase (SU/ml), and 1 mM MgSO4.

MSK1 [2] = assay: Activation of endogenous MSK1 in 293 cells (immunoprecipitation and Crosstide assay); format: cell-based, human; conditions: for activation of MSK1 by EGF and TPA: 50 μM PD 98059 or 10 μM SB 203580, 1 h
CREB and ATF1 = CREB and ATF1 phosphorylation in RAW 264 macrophages, immunoblot; format: cell-based, mouse; conditions: for LPS-induced phosphorylation of CREB and ATF1: LPS 100 ng/ml 1 h
Experimental: as §1
FIG. 19. […] (A) Macrophages were stimulated for the times indicated with LPS (100 ng/ml). After cell lysis, aliquots of the lysate (30 Tg protein) were denatured in SDS, electrophoresed on a 10% polyacrylamide gel, transferred to a nitrocellulose membrane, and immunoblotted with a phospho-CREB antibody. The positions of the molecular mass markers glycogen phosphorylase (97 kDa), bovine serum albumin (66 kDa), ovalbumin (43 kDa) and carbonic anhydrase (30 kDa) are indicated. […] (B) As in A, except that the macrophages were incubated for 1 h in the presence or absence of 50 TM PD 98059 and/or 10 TM SB 203580 (SB), or 5 TM Ro 318220 (Ro), then stimulated for 1 h in the absence or presence of 100 ng/ml LPS and in the continued presence or absence of the inhibitors.
FIG. 22. […] (A) Macrophages were stimulated for 1 h with LPS (100 ng/ml) or for 15 min with forskolin (F) (20 TM) plus IBMX (10 TM). After cell lysis, aliquots of the lysate (30 Tg protein) were immunoblotted with a phospho-specific CREB antibody (see legend to FIG. 19 for details and molecular mass markers). (B) Macrophages were stimulated for 3 h with LPS (100 ng/ml), or forskolin (20 TM) plus IBMX (10 TM), and immunoblotting performed with a specific COX-2 antibody (materials & methods section). The marker proteins are as in FIG. 19.
as §2
Immunoblotting. For immunoblotting of CREB, nuclear cell extracts were prepared as described and immunoblotting performed using a phospho-specific antibody recognising CREB phosphorylated on Ser 133 and ATF1 phosphorylated on Ser 63. For immunoblotting of COX-2, cell lysate (30 Tg protein) was denatured in SDS, electrophoresed on 10% polyacrylamide gel, transferred to a nitrocellulose membrane, and immunoblotted with anti-COX-2 antibody (1.0 mg/ml). Detection of phosphorylated CREB and ATF1 and COX-2 was performed using the enhanced chemiluminescence reagent (ECL).

CREB = assay: NGF-induced phosphorylation of CREB in PC12 cells; format: cell-based; conditions: 50 μM PD 98059, 10 μM SB 203580, 5 μM Ro 318220, NGF 30 ng/ml 15 min
Experimental: Immunoblotting for phosphorylated CREB and ATF1. Cell extracts were prepared and immunoblotting of these carried out as described (Tan et al., 1996) using a phosphospecific antibody recognizing CREB phosphorylated on Ser 133 and ATF1 phosphorylated on Ser63 purchased from UBI (Lake Placid, USA). Detection of phosphorylated CREB and ATF1 proteins was performed using the enhanced chemiluminescence reagent (Amersham).

COX-2 mRNA = assay: COX-2 gene transcription in RAW 264 macrophages, RT-PCR; format: cell-based, mouse; conditions: LPS 3 h, PD 98059 (50 TM), SB 203580 (10 TM), Ro 318220 (5 TM)
Experimental: as §3, §2, §4

[3] = 50 TM PD 98059, 10 TM SB 203580, 5 TM Ro 318220

Row | Compound | LPS-stimulated phosphorylation of MSK1 (MSK1 [1]) | LPS induction of IL-1 mRNA (IL-1 mRNA) | activation of MSK1 by EGF and TPA (MSK1 [2]) | LPS-induced phosphorylation of CREB and ATF1 (CREB and ATF1; [3]) | NGF-induced phosphorylation of CREB (CREB) | LPS induction of COX-2 mRNA (COX-2 mRNA) | LPS-induced activation of MSK1 (MSK1 [1]) | forskolin-triggered phosphorylation of CREB and ATF-1, effect of inhibitors (CREB and ATF1; data not shown) | activation of MSK1 by stressful stimuli (MSK1 [2]; sodium arsenite, UV radiation or H2O2, 50 μM PD 98059 or 10 μM SB 203580) | LPS-induced phosphorylation of CREB and ATF1 (CREB and ATF1; 50 TM PD 98059, 10 TM SB 203580, 5 TM Ro 318220, listed as SB203580)
1 | COc1cccc(-c2cc(=O)c3ccccc3o2)c1N [PD 98059] | appear to inhibit | partially inhibited | largely prevented | appear to inhibit; also recorded: partially inhibited | not significantly affected | partially suppressed | – | – | – | –
2 | Cn1cc(C2=C(c3cn(CCCSC(=N)N)c4ccccc34)C(=O)NC2=O)c2ccccc21 [Ro 318220] | – | suppresses | – | completely prevents | suppressed | suppresses | does not affect | not suppressed | – | –
3 | C[S+]([O-])c1ccc(-c2nc(-c3ccncc3)c(-c3ccc(F)cc3)[nH]2)cc1 (stereo not drawn) [SB 203580] | appear to inhibit | partially inhibited | but not by SB 203580 | partially inhibited | not significantly affected | partially suppressed | only inhibited partially | – | largely inhibited | appear to inhibit
